From patent US20040176430A1, “Propargyl-trifluoromethoxy-amino-benzothiazole derivatives” (priority 2002, published 2004)
Where “and” joins values, the source holds several entries; their conditions need not be identical. Identical values can stand only once.

Experiments:
EAE = experiment: Experimental Allergic Encephalomyelitis (EAE) model of MS; assay type: in vivo, mice; details: 10 mg/kg twice daily, oral gavage, 30 days
Protocol: EAE is an accepted animal model of autoimmune disorder (Tisch et al. Proc. Natl. Acad. Sci. USA (1994) 91:437-438). EAE was induced by injecting the encephalitogenic agent consisting of MSCH and commercial CFA containing Mycobacterium tuberculosis H37Ra to the foot-pads of the animals and pertussis toxin intravenously.
GA-DS in MSCH emulsion was injected in the four footpads. The other compounds were administered to the respective groups by oral gavage twice daily for 30 consecutive days starting from the day of induction until the termination of the study.
Scoring of EAE clinical signs was initiated from Day 10 post-EAE induction and was continued daily for 20 days. The clinical signs were recorded on observation cards according to a grading system described in the table below.
The number of dead or moribund animals in each group were summed.
The mortality rate was calculated as: [formula]
The mean maximal score (MMS) of each group was calculated as Σ maximal score of each mouse/number of mice in the group.
The percent inhibition was calculated as [formula]
The daily scores of each mouse in the test group was summed and the individual mean daily score (IMS) was calculated as IMS=daily score of mouse/observation period (days).
The mean group score (GMS) will be calculated as Σ IMS of each mouse/number of mice in the group.
The percent inhibition will be calculated as [formula]

PC-12 cells = experiment: Effect on MPP+ treated PC-12 cells (LDH release); assay type: cell-based; details: MPP+ 1000 μM for 48 hours, tested compound 10 μM added 30 min prior to MPP+
Protocol: Pheochromocytoma PC-12 cells (at a density of 200,000 cells/well) were cultured for 10 days with 50 ng/ml NGF on 6-well culture dishes coated with 200 ug/ml rat tail type I collagen (BD Biosciences, Bedford, Mass., USA). On the day of the experiment the morphological differentiation of the cells was very advanced (typical network formation). In order to initiate the neurotoxic insult, cells were treated with 1000 μM of 1-methyl-4-phenylpyrdinium (MPP+) iodide salt from RBI chemicals (Natick, Mass., USA) for 48 hours in the absence or presence of tested compounds, added to the culture 30 min. prior to MPP+ administration. […] At the cellular level, neuronal cell death is induced by several mechanisms including pathological concentrations of intracellular calcium and free oxygen radicals. Therefore the positive control in this experiment was nimodipine at the concentration of 10 μM (RBI chemicals, Natick, Mass., USA)(a potent L-type calcium channel blocker). At the end of the experiment cell death was measured by assessing Lactate dehydrogenase (LDH) activity in the medium. High medium LDH indicated increased neuronal death that promoted leakage of this cytoplasmic enzyme into the medium.
Measuring lactate dehydrogenase activity in the medium was performed using a Sigma Diagnostics LD-L reagent. LDH activity was spectrophotometrically monitored at 340 nm by following the rate of conversion of oxidized nicotinamide adenine dinucleotide (NAD^+) to the reduced form of (NADH). Total LDH of each culture (extracellular+intracellular) was obtained by measuring LDH in the medium after freezing and thawing of the cultures. Basal LDH release was measured in untreated cultures (no MPP+). The neurotoxic effect was calculated according to the formula: (LDHs−LDHb)/LDHt×100. (s=sample; b=basal; t=total). Each compound was tested in sixplicate.

C57bl mice = experiment: Effect on MPP+ toxicity in mice (striatal dopamine and DOPAC); assay type: in vivo; details: for DOPAC Pmol/mg tissue +/− S.E.M. / Dopamine Pmol/mg tissue +/− S.E.M.: 5 mg/kg oral in CMC
Protocol: MPP+ is a neuro-toxin and its injection into the brain causes depletion of striatal dopamine. Male C57bl mice, weighing 24-25 g were divided into 4 groups A-D receiving the following treatments:
A: Oral administration of 0.25% Carboxymethyl cellulose (CMC, 0.1 ml/mouse) and intracerebroventricular (ICV) injection of saline (10 μl/mouse).
B. Oral administration of 5 mg/kg 3a in 0.1 ml CMC, and ICV injection of 10 μl saline.
C. Oral administration of 0.1 ml CMC, and ICV injection of 30 μg MPP+ dissolved in 10 μl saline.
D. Oral administration of 5 mg/kg 3a in 0.1 ml CMC, and ICV injection of 30 μg MPP+ dissolved in 10 μl saline.
3a/CMC or CMC alone were orally administered 30 minutes before and 2 hours after ICV injection. The injection was done according to Haley T. J and McCormick W. G (Brit.J. Pharmacol., 1957, 12, 12) using ether anesthesia. Saline or MPP+/saline were injected during 1 second using a syringe that delivered the liquid at a rate of 0.6 ml/min. Two ICV injections were carried out with a 24 hour interval between them. Mice were killed six days after the last injection and striata taken for dopamine and DOPAC determinations. Each striatum was weighed, homogenized in 0.1M Perchloric acid (0.6 ml) containing 2 mM sodium metabisulfite and 0.3 mM EDTA. After centrifugation at 13000 g for 7 minutes, the supernatant was taken for catecholamine determination. Aliquotes of 20 μl were injected into the solvent stream of an HPLC apparatus equipped with a Microsorb column (packing 3 μm, 4.6 mm diameter, 12.5 cm long). The mobile phase was composed of NaH2PO4 100 mM, octan-1-sulphonic acid 1.5 mM, disodium ethylenediaminetetracetic acid 250 μM, methanol 2.3%, acetonitrile 4% in grade deionized water, at a flow rate of 1.0 ml min^−1. Dopamine and DOPAC were detected with an ESA Coulochem model 5014 detector (Bedford, Mass., USA). Column eluates were initially oxidized by an ESA guard cell (model 5020) at +300 mV, then reduced at +60 mV at detector 1 and measured at detector 2 at −250 mV.

[1] = with ICV MPP+ 30 μg (Group D), striatum six days after last injection
[2] = without MPP+, ICV saline (Group B), striatum

| SMILES | GMS % Inhibition (EAE) [%] | MMS % Inhibition (EAE) [%] | Mortality % Inhibition (EAE) [%] | Percent of total LDH release (mean ± S.E.M.) (PC-12 cells) | melting point [°C] | also measured |
| --- | --- | --- | --- | --- | --- | --- |
| C#CCN(C)c1nc2ccc(OC(F)(F)F)cc2s1 [Compound 3, Methyl-prop-2-ynyl-(6-trifluoromethoxy-benzothiazol-2-yl)-amine] | 87.5 | 73.5 | 100 |  |  |  |
| C#CCN(C)c1nc2ccc(OC(F)(F)F)cc2s1.Cl [Compound 3a, Methyl-prop-2-ynyl-(6-trifluoromethoxy-benzothiazol-2-yl)-amine.HCl salt] |  |  |  | 10.9% and 10.9 ± 2.3% |  | Effect on MPP+ caused depletion in striatal concentrations of dopamine and DOPAC (C57bl mice; Group D, 5 mg/kg oral, MPP+ ICV): reduced this depletion; DOPAC Pmol/mg tissue +/− S.E.M. (C57bl mice; [1]): 3.7 +/− 0.2 Pmol/mg tissue; Dopamine Pmol/mg tissue +/− S.E.M. (C57bl mice; [1]): 66.0 +/− 3.4 Pmol/mg tissue; DOPAC Pmol/mg tissue +/− S.E.M. (C57bl mice; [2]): 4.8 +/− 0.4 Pmol/mg tissue; Dopamine Pmol/mg tissue +/− S.E.M. (C57bl mice; [2]): 78.2 +/− 4.3 Pmol/mg tissue |
| C#CCNc1nc2ccc(OC(F)(F)F)cc2s1 [Compound 4, Prop-2-ynyl-(6-trifluoromethoxy-benzothiazol-2-yl)-amine] |  |  |  |  | 138 to 140 |  |
| C#CCNc1nc2ccc(OC(F)(F)F)cc2s1.Cl [Compound 4a, Prop-2-ynyl-(6-trifluoromethoxy-benzothiazol-2-yl)-amine.HCl salt] |  |  |  | 25 ± 8.0% |  |  |
| C#CC(C)N(C)c1nc2ccc(OC(F)(F)F)cc2s1 (stereo not drawn) [Compound 6, Methyl-(1-methyl-prop-2-ynyl)-(6-trifluoromethoxy-benzothiazol-2-yl)-amine] |  |  |  |  | 42 to 43 |  |
| C#CCN(CC(=O)c1ccc(C)cc1)c1nc2ccc(OC(F)(F)F)cc2s1 [Compound 9, 2-[Prop-2-ynyl-(6-trifluoromethoxy-benzothiazole-2-yl)-amino]-1-p-tolyl-ethanone] | 57.6 | 48.8 | 50 |  |  |  |
| C#CCN=c1sc2cc(OC(F)(F)F)ccc2n1C [Compound 10, (3-Methyl-6-trifluoromethoxy-3H-benzothiazol-2-ylidene)-prop-2-ynyl-amine] | 37.5 | 34.1 | 40 |  |  |  |
| C#CCN=c1sc2cc(OC(F)(F)F)ccc2n1CC(=O)c1ccc(C)cc1 [Compound 13, 2-(2-Prop-2-ynylimino-6-trifluoromethoxy-benzothiazole-3-yl)-1-p-tolyl-ethanone] |  |  |  |  | 98 to 100 |  |
| COCCOC(=O)C1=C(C)NC(C)=C(C(=O)OC(C)C)C1c1cccc([N+](=O)[O-])c1 (stereo not drawn) [Nimodipine, reference compound] |  |  |  | 3.6 ± 0.4% |  | Percent of total LDH release (mean ± S.E.M.) (PC-12 cells; listed as nimodipine): 3.6% |
